Measurements: US10335403B2, “Niacin formulation” (Zeenar Enterprises Pty Ltd., priority 2013, dated 2019)

Test system: PGE2 production in 3T3 cells
Experiment: PGE2 inhibition in 3T3 cells stimulated with calcium ionophore (Cayman PGE2 monoclonal EIA kit)
Type: cell-based
Conditions: Mus musculus, NIH3T3, at 0.488 μg/mL, relative to control cells not exposed, read-out: highest PGE2 inhibition observed
Method: As is known in the art, prostaglandin E2 (PGE2) activity can be used to measure anti-inflammatory activity of a substance. PGE2 inhibitory activity can be measured by the ability of test samples to inhibit PGE2 production in 3T3 cells when stimulated with calcium ionophore. As understood in the art, aspirin and ibuprofen may be included in the assay as a positive control. The in vitro production of PGE2 from 3T3 cells was measured using the Cayman Chemical Prostaglandin E2 monoclonal EIA (Enzyme Immuno Assay) kit. The cells were exposed to extracts derived from dunder and molasses and stimulated with calcium ionophore. The cell supernatants were then assayed for PGE2 production. The cell cytotoxicity of the samples was tested against 3T3 cells to confirm that the observed PGE2 inhibition was not due to cell cytotoxicity. Aspirin and ibuprofen were used as positive controls.

CC(C)Cc1ccc(C(C)C(=O)O)cc1 (stereo not shown) [ibuprofen]
inhibition at 0.488 µg/mL: 42.1%
